Legend:
HepG2 cells = assay: Cell proliferation, Ki67 flow cytometry; type: cell-based, human; conditions: 24 h, 50 μM
human topo IIα [1] = molecular target: T1, human topo IIα (Homo sapiens, UniProt P11388); assay: HTS relaxation assay of human topo IIα; type: biochemical
T1 construct: purchased Inspiralis (Norwich, U.K.)

human topo IIβ = molecular target: T2, human topo IIβ (Homo sapiens, UniProt Q02880); assay: Human topo IIβ-mediated kDNA decatenation assay; type: biochemical
T2 construct: purchased Inspiralis (Norwich, U.K.)
T2 sequence (Q02880 whole entry): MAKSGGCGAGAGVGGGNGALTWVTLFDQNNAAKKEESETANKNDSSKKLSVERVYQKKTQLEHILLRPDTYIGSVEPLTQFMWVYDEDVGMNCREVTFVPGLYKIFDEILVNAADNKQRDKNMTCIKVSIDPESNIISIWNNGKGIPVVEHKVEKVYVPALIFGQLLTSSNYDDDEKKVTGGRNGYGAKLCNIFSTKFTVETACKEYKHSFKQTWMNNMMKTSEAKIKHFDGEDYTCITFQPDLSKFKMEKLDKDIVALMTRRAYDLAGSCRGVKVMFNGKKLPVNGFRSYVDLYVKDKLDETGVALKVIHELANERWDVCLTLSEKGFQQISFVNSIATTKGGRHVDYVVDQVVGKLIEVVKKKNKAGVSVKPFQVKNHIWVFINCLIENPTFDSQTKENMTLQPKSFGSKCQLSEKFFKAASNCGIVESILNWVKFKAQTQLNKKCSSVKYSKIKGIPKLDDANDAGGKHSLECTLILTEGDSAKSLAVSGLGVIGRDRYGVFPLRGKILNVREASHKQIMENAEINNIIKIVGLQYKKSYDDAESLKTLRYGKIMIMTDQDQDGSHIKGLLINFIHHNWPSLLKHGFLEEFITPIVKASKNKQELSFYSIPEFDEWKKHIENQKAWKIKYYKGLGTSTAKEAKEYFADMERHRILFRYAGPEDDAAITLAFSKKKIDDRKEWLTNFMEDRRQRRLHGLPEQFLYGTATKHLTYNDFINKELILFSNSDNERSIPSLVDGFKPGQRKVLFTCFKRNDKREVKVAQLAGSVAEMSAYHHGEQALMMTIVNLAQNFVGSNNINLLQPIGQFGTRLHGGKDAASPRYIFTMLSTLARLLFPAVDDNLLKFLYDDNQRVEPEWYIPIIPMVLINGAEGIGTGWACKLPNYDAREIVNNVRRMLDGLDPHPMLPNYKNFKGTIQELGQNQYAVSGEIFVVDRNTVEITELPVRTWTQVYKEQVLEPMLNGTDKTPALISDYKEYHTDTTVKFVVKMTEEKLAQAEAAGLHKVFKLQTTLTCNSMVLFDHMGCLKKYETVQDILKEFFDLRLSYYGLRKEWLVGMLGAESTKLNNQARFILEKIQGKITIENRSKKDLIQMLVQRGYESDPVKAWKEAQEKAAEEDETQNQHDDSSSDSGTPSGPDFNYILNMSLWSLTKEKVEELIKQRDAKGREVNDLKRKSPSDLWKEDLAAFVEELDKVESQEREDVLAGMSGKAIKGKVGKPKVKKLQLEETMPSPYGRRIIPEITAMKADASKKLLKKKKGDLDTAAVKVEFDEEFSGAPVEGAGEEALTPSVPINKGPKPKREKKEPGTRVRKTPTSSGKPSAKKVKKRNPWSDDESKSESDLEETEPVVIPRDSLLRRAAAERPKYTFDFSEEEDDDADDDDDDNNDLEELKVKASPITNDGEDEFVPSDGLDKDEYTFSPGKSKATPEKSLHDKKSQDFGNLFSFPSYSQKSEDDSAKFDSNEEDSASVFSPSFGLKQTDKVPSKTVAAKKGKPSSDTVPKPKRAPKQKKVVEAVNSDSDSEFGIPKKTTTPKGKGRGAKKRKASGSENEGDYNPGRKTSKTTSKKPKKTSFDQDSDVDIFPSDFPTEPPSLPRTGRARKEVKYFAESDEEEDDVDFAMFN
Description: We were also interested in whether compounds can act on both isoforms of the human topo II. Thus, we performed human topo IIβ decatenation assays for compounds 1 and 9. […] (see also Tables S5 and S6 for more details).
(§1) We made use of the human topo II decatenation assay kit from Inspiralis (Norwich, U.K.) to assess the ability of selected compounds to impede DNA decatenation.[89],[90] It was performed for topo IIα and topo IIβ isoforms using the protocol as described previously.[35]

human topo IIα [2] = molecular target: T1, human topo IIα; assay: Human topo IIα-mediated kDNA decatenation assay; type: biochemical
Description: as §1

human topo IIα [3] = molecular target: T1, human topo IIα; assay: Human topo IIα-mediated cleavage assay; type: biochemical
Text: To determine whether compounds act as catalytic inhibitors, a cleavage assay was next performed for compounds 1 and 9.
We performed the assay in collaboration with Inspiralis (Norwich, U.K.).

[4] = molecular target: T3, human topo IIα ATPase domain (Homo sapiens, UniProt P11388); assay: Microscale thermophoresis (MST) binding; conditions: truncated human topo IIα ATPase domain; three independent runs
T3 construct: the ATPase domain of human topo IIα with 1–453 amino acid residues; purchased Inspiralis
T3 sequence (P11388 1-453): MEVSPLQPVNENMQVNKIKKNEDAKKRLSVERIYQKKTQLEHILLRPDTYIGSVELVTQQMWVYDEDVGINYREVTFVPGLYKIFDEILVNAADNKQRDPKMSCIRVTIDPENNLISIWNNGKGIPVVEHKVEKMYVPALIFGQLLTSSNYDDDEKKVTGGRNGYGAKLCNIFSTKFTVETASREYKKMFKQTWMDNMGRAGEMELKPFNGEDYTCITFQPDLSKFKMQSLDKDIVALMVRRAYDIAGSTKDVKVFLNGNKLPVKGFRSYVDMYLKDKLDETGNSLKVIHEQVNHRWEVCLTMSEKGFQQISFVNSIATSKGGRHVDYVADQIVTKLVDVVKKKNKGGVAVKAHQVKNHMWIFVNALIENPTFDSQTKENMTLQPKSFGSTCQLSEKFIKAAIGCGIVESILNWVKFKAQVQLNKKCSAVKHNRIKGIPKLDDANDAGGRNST

human topo IIα [5] = molecular target: T1, human topo IIα; assay: Human topoisomerase II competitive ATPase assay; type: biochemical
Description: The human topo competitive ATPase assay was executed at Inspiralis (Norwich, U.K.). The compound was analyzed using a kinase/lactate dehydrogenase assay as described above.
A mixture of the assay buffer (20 mM Tris–HCl, 5 mM magnesium acetate, 125 mM potassium acetate, 2 mM DTT, pH 7.9), linear pBR322 (1.5 μL of 1 mg/mL per assay), phosphoenol pyruvate (0.5 μL of 80 mM per assay), pyruvate kinase/lactate dehydrogenase mix (0.75 μL per assay), NADH (1 μL of 20 mM per assay), DMSO (1.5 μL per assay), and water (32.85 μL per assay) was prepared. This mixture (41.1 μL) was put into the wells of a 384-well microtiter plate. DMSO (0.5 μL) or the diluted investigated compound in the DMSO was added to the wells and mixed. Subsequently, 5 μL of the dilution buffer or human topo IIα (12 nM final concentration) was added and mixed. Before the run, a prerun was done where we added 3.4 μL of the appropriate concentration of ATP and monitored the OD340 for up to 35 min. The assay temperature was 37 °C. Two negative controls (4% DMSO and dilution buffer without enzyme) were used in the presence of 2 mM ATP. The ATP concentrations in this assay were 0.025, 0.05, 0.075, 0.1, 0.25, 0.5, 0.75, and 1 mM. The assays were executed in duplicate at 3.9, 31, 50, 75, and 100 μM final concentrations of the investigated compound 1. DMSO has a final concentration of 4% (v/v) in all of the reactions.
8. Human topoisomerase II ATPase assays at different concentration of the ATP – Competitive ATPase assay
The spectrophotometer produces an output as change in OD340 with time (data not shown).
The data from the runs after the addition of the ATP were plotted after adjusting the starting OD340 to zero. Lines are fitted to these by linear regression and the rates (OD change/min) calculated. The rates for each ATP and inhibitor concentration were then calculated as μM ATP hydrolysed/min using an extinction coefficient of 6.22 M-1 cm-1 and a path length of 0.5 cm. The rates were then plotted against the ATP concentration and curves fitted to the data using the hyperbolic equation y=(ax/(b+x) where y = rate, x = [ATP], a = Vmax and b=Km.
Using the equation y=y0+(ax/(b+x)) it was possible to solve it and obtain values. […]
concentrations after subtraction of the background rate and calculated Km (mM ATP) and Vmax (μM ATP/min) values. They were calculated from equation y = (ax /(b+x) where y = rate, x = [ATP], a = Vmax.
Rates for controls without enzyme in the presence of 2 mM ATP (μmol/min) […]
Rates (μmol/min) at different ATP concentrations (mM) after subtraction of background […]
Calculated Km (mM ATP) and Vmax (μM ATP/min) values

T1 sequence (P11388 whole entry): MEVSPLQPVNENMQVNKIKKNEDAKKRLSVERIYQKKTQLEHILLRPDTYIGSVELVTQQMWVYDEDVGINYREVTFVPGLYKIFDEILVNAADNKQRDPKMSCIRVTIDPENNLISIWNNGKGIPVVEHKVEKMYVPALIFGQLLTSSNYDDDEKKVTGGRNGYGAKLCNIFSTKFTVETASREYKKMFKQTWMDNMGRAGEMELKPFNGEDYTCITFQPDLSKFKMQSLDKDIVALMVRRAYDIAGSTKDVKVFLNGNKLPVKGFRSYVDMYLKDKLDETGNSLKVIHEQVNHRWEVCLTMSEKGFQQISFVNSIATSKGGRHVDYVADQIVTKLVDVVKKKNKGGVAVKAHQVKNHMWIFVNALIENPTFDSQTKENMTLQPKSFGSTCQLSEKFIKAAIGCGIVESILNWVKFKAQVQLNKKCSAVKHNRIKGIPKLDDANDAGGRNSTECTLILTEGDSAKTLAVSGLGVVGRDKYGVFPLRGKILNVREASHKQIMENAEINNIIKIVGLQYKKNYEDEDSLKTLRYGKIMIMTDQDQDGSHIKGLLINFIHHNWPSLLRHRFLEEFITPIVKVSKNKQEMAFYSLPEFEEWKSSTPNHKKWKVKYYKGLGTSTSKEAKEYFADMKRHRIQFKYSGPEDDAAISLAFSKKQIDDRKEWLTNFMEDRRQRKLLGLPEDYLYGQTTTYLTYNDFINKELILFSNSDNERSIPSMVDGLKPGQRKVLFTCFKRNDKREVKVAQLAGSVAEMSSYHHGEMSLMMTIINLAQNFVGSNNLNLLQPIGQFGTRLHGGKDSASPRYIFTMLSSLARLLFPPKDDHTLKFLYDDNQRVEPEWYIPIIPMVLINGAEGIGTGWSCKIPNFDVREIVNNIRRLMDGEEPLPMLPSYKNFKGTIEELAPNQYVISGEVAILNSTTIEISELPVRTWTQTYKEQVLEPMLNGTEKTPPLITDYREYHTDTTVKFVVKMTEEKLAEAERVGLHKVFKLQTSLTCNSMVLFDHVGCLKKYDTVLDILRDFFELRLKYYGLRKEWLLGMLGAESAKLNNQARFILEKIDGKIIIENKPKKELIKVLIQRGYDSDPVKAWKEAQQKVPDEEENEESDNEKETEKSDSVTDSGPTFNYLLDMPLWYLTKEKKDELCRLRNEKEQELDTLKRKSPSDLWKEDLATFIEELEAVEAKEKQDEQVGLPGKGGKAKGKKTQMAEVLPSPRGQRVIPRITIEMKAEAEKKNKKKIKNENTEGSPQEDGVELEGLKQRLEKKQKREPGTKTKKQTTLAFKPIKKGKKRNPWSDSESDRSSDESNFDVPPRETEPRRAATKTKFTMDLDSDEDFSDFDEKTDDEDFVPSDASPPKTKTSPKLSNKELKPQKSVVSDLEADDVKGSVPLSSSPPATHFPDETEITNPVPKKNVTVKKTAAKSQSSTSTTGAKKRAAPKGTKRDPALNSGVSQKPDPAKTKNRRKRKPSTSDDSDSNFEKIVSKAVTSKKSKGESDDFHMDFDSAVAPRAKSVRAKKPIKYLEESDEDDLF

IC50 (human topo IIα [1]): 33.4 µM | inhibition of decatenation (human topo IIβ; 125 μM): completely inhibited | inhibition of decatenation (human topo IIβ; 500 μM): completely inhibited | % Decatenated Average (human topo IIα [2]; 31.5 μM): 80.9% | inhibition of decatenation (human topo IIα [2]; 125 μM): complete inhibition | inhibition of decatenation (human topo IIα [2]; 500 μM): complete inhibition | % Linear DNA (first column) (human topo IIα [3]; 3.9 μM): 8.05% | % Linear DNA (second column) (human topo IIα [3]; 3.9 μM): 5.57% | % Linear DNA (first column) (human topo IIα [3]; 31.5 μM): 6.32% | % Linear DNA (second column) (human topo IIα [3]; 31.5 μM): 7.77% | % Linear DNA (first column) (human topo IIα [3]; 125 μM): 3.02% | % Linear DNA (second column) (human topo IIα [3]; 125 μM): 2.85% | % Linear DNA (first column) (human topo IIα [3]; 500 μM): 2.45% | % Linear DNA (second column) (human topo IIα [3]; 500 μM): 2.98% | Kd [4]: 50.6 ± 7.6 µM | IC50 (human topo IIα [5]; ATP 0.025 (mM per method), fit R^2 0.474, read-out: IC50 at c(ATP) 0.025): 0.0038 mM | IC50 (human topo IIα [5]; ATP 0.05 (mM per method), read-out: IC50 at c(ATP) 0.05): 0.0088 mM | IC50 (human topo IIα [5]; ATP 0.075 (mM per method), read-out: IC50 at c(ATP) 0.075): 0.0148 mM | IC50 (human topo IIα [5]; ATP 0.1 (mM per method), read-out: IC50 at c(ATP) 0.1): 0.0094 mM | IC50 (human topo IIα [5]; ATP 0.25 (mM per method), read-out: IC50 at c(ATP) 0.25): 0.0183 mM | IC50 (human topo IIα [5]; ATP 0.5 (mM per method), read-out: IC50 at c(ATP) 0.5): 0.0152 mM | IC50 (human topo IIα [5]; ATP 0.75 (mM per method), read-out: IC50 at c(ATP) 0.75): 0.0178 mM | IC50 (human topo IIα [5]; ATP 1 (mM per method), read-out: IC50 at c(ATP) 1): 0.0216 mM | IC50 (human topo IIα [5]; ATP 2 (mM per method), read-out: IC50 at c(ATP) 2): 0.0254 mM | Calculated Vmax (human topo IIα [5]; compound 3.9 μM): 2.97 μM ATP/min | Rate of ATP hydrolysis after subtraction of background (human topo IIα [5]; compound 3.9 μM, ATP 0.025 mM): 0.064 µmol/min | Rate of ATP hydrolysis after subtraction of background (human topo IIα [5]; compound 3.9 μM, ATP 0.05 mM): 0.257 µmol/min | Rate of ATP hydrolysis after subtraction of background (human topo IIα [5]; compound 3.9 μM, ATP 0.075 mM): 0.354 µmol/min | Rate of ATP hydrolysis after subtraction of background (human topo IIα [5]; compound 3.9 μM, ATP 0.1 mM): 0.450 µmol/min | Rate of ATP hydrolysis after subtraction of background (human topo IIα [5]; compound 3.9 μM, ATP 0.25 mM): 1.158 µmol/min | Rate of ATP hydrolysis after subtraction of background (human topo IIα [5]; compound 3.9 μM, ATP 0.5 mM): 1.479 µmol/min | Rate of ATP hydrolysis after subtraction of background (human topo IIα [5]; compound 3.9 μM, ATP 0.75 mM): 1.801 µmol/min | Rate of ATP hydrolysis after subtraction of background (human topo IIα [5]; compound 3.9 μM, ATP 1 mM): 1.897 µmol/min | Rate of ATP hydrolysis after subtraction of background (human topo IIα [5]; compound 3.9 μM, ATP 2 mM): 2.444 µmol/min | Calculated Vmax (human topo IIα [5]; compound 31 μM): 1.9 μM ATP/min | Rate of ATP hydrolysis after subtraction of background (human topo IIα [5]; compound 31 μM, ATP 0.05 mM): 0.032 µmol/min | Rate of ATP hydrolysis after subtraction of background (human topo IIα [5]; compound 31 μM, ATP 0.075 mM): 0.096 µmol/min | Rate of ATP hydrolysis after subtraction of background (human topo IIα [5]; compound 31 μM, ATP 0.1 mM): 0.161 µmol/min | Rate of ATP hydrolysis after subtraction of background (human topo IIα [5]; compound 31 μM, ATP 0.25 mM): 0.450 µmol/min | Rate of ATP hydrolysis after subtraction of background (human topo IIα [5]; compound 31 μM, ATP 0.5 mM): 0.707 µmol/min | Rate of ATP hydrolysis after subtraction of background (human topo IIα [5]; compound 31 μM, ATP 0.75 mM): 0.868 µmol/min | Rate of ATP hydrolysis after subtraction of background (human topo IIα [5]; compound 31 μM, ATP 1 mM): 1.061 µmol/min | Rate of ATP hydrolysis after subtraction of background (human topo IIα [5]; compound 31 μM, ATP 2 mM): 1.286 µmol/min | Calculated Vmax (human topo IIα [5]; compound 50 μM): 2.77 μM ATP/min | Rate of ATP hydrolysis after subtraction of background (human topo IIα [5]; compound 50 μM, ATP 0.025 mM): 0.000 µmol/min | Rate of ATP hydrolysis after subtraction of background (human topo IIα [5]; compound 50 μM, ATP 0.05 mM): 0.096 µmol/min | Rate of ATP hydrolysis after subtraction of background (human topo IIα [5]; compound 50 μM, ATP 0.075 mM): 0.129 µmol/min | Rate of ATP hydrolysis after subtraction of background (human topo IIα [5]; compound 50 μM, ATP 0.1 mM): 0.032 µmol/min | Rate of ATP hydrolysis after subtraction of background (human topo IIα [5]; compound 50 μM, ATP 0.25 mM): 0.193 µmol/min | Rate of ATP hydrolysis after subtraction of background (human topo IIα [5]; compound 50 μM, ATP 0.5 mM): 0.450 µmol/min | Rate of ATP hydrolysis after subtraction of background (human topo IIα [5]; compound 50 μM, ATP 0.75 mM): 0.707 µmol/min | Rate of ATP hydrolysis after subtraction of background (human topo IIα [5]; compound 50 μM, ATP 1 mM): 0.772 µmol/min | Rate of ATP hydrolysis after subtraction of background (human topo IIα [5]; compound 50 μM, ATP 2 mM): 1.222 µmol/min | Calculated Vmax (human topo IIα [5]; compound 75 μM): 1.94 μM ATP/min | Rate of ATP hydrolysis after subtraction of background (human topo IIα [5]; compound 75 μM, ATP 0.025 mM): 0.096 µmol/min | Rate of ATP hydrolysis after subtraction of background (human topo IIα [5]; compound 75 μM, ATP 0.05 mM): 0.032 µmol/min | Rate of ATP hydrolysis after subtraction of background (human topo IIα [5]; compound 75 μM, ATP 0.1 mM): 0.064 µmol/min | Rate of ATP hydrolysis after subtraction of background (human topo IIα [5]; compound 75 μM, ATP 0.25 mM): 0.225 µmol/min | Rate of ATP hydrolysis after subtraction of background (human topo IIα [5]; compound 75 μM, ATP 0.5 mM): 0.322 µmol/min | Rate of ATP hydrolysis after subtraction of background (human topo IIα [5]; compound 75 μM, ATP 0.75 mM): 0.386 µmol/min | Rate of ATP hydrolysis after subtraction of background (human topo IIα [5]; compound 75 μM, ATP 1 mM): 0.354 µmol/min | Rate of ATP hydrolysis after subtraction of background (human topo IIα [5]; compound 75 μM, ATP 2 mM): 0.740 µmol/min | Calculated Vmax (human topo IIα [5]; compound 100 μM): 3.07 μM ATP/min | Rate of ATP hydrolysis after subtraction of background (human topo IIα [5]; compound 100 μM, ATP 0.025 mM): 0.064 µmol/min | Rate of ATP hydrolysis after subtraction of background (human topo IIα [5]; compound 100 μM, ATP 0.05 mM): 0.032 µmol/min | Rate of ATP hydrolysis after subtraction of background (human topo IIα [5]; compound 100 μM, ATP 0.075 mM): 0.000 µmol/min | Rate of ATP hydrolysis after subtraction of background (human topo IIα [5]; compound 100 μM, ATP 0.1 mM): 0.032 µmol/min | Rate of ATP hydrolysis after subtraction of background (human topo IIα [5]; compound 100 μM, ATP 0.25 mM): 0.064 µmol/min | Rate of ATP hydrolysis after subtraction of background (human topo IIα [5]; compound 100 μM, ATP 0.5 mM): 0.418 µmol/min | Rate of ATP hydrolysis after subtraction of background (human topo IIα [5]; compound 100 μM, ATP 0.75 mM): 0.289 µmol/min | Rate of ATP hydrolysis after subtraction of background (human topo IIα [5]; compound 100 μM, ATP 1 mM): 0.354 µmol/min | Rate of ATP hydrolysis after subtraction of background (human topo IIα [5]; compound 100 μM, ATP 2 mM): 0.772 µmol/min
SMILES: Cc1nc(N)sc1-c1csc(Nc2ccc(C(F)(F)F)cc2)n1 [Compound 1]
cell proliferation (Ki67) (HepG2 cells): 65.1% | linear DNA formation in cleavage assay (in words) (human topo IIα [3]; four concentrations): did not reveal a significant amount of linear DNA above the background level

From article PMC7469689, “Substituted 4,5′-Bithiazoles as Catalytic Inhibitors of Human DNA Topoisomerase IIα” (Journal of Chemical Information and Modeling, 2020)
